Assays:
neutrophils = test: zebrafish tail fin wounding assay, neutrophil migration to wounded site; type: in vivo, zebrafish (Danio rerio); conditions: for migration of neutrophils upon tail fin wounding: Example 2, PPT 50 μM, F1, Rh1, Rg1 100 μM, Bec positive control, 3 dpf; for reduction in neutrophil migration in presence of Gba2 inhibitor MZ31: MZ31 (10 μM) co-treatment; for migration of neutrophils towards the wounded site: 4 h after wounding
Procedure: (§1) Zebrafish (Danio rerio) were maintained and handled according to the guidelines from the Zebrafish Model Organism Database (http://zfin.org) and in compliance with the directives of the local animal welfare committee of Leiden University. Zebrafish were exposed to a 14 h light and 10 h dark cycle to maintain circadian rhythmicity. Fertilization was performed by natural spawning at the beginning of the light period. […] The following zebrafish lines were used in this study: the double transgenic line Tg(mpx:GFP^i114/mpeg1:mCherry^umsF001), in which neutrophils and macrophages are fluorescently labeled (green and red, respectively), and the Tg(9xGCRE-HSV.UI23:EGFP)^ia20 reporter line, in which the gene encoding enhanced green fluorescent protein (EGFP) is driven by a GRE-containing promoter.
(§2) For the tail fin wounding experiments, 20 larvae at 2 or 3 days post-fertilization (dpf) were utilized for each experimental group. For wounding, larvae were anesthetized in egg water containing 0.02% buffered aminobenzoic acid ethyl ester (tricaine; Sigma-Aldrich). Larvae were placed on Petri dishes coated with 2% agarose under a Leica M165C stereomicroscope (Leica Microsystems, Wetzlar, Germany), and the tails were partly amputated using a 1-mm sapphire blade (World Precision Instruments, Sarasota, FL, USA). For quantification of leukocyte migration, larvae were fixed overnight in 4% paraformaldehyde (PFA) at 4° C. The next day, fixed larvae were washed with Phosphate Buffered Saline (PBS) containing 0.1% Tween 20, and stored at 4° C. until imaging.
(§3) The macrophages were detected based on their red (mCherry) fluorescence, and neutrophils based on their green (EGFP) fluorescence. To quantify the number of macrophages and neutrophils recruited to the wounded area, the cells in a defined area of the tail were determined by blinded manual counting.
(§4) Zebrafish (Danio rerio) were maintained and handled according to the guidelines from the Zebrafish Model Organism Database (http://zfin.org) and in compliance with the directives of the local animal welfare committee of Leiden University. Zebrafish were exposed to a 14 h light and 10 h dark cycle to maintain circadian rhythmicity. Fertilization was performed by natural spawning at the beginning of the light period. […] The following zebrafish lines were used in this study: AB/TL wild type, the transgenic lines Tg(mpx:GFP^i114/mpeg1:mCherry^umsF001)[14, 15], and Tg(9xGCRE-HSV.UI23:EGFPia^20)[16], and the mutant lines grs357[20].
(§5) For the tail fin wounding experiments, 2- or 3-days post-fertilization (dpf) larvae were anesthetized in egg water containing 0.02% buffered aminobenzoic acid ethyl ester (tricaine; Sigma-Aldrich). Larvae were placed in Petri dishes coated with 2% agarose under a Leica M165C stereomicroscope (Leica Microsystems, Wetzlar, Germany), and the tails were partly amputated using a 1-mm sapphire blade (World Precision Instruments, Sarasota, FL, USA).
(§6) In experiments in which the leukocyte migration was used as a readout, larvae were subjected to treatment with chemicals as indicated, starting at 2 h before the amputation (pretreatment), and treatment was continued for 4 h after the tail fin amputation (20 larvae per group, unless indicated otherwise). In some experiments, a 24 h treatment with MZ31 (10 μM) was started at 2 dpf, and these treatments were continued during the pretreatment and treatment with the other chemicals. At 4 h after amputation, the larvae were fixed in 4% paraformaldehyde (PFA) overnight at 4° C. The next day, fixed larvae were washed with Phosphate Buffered Saline (PBS) containing 0.1% Tween 20 and stored at 4° C. until imaging. […] The macrophages were detected based on red (mCherry) fluorescence and neutrophils on their green (EGFP) fluorescence. To quantify the number of macrophages and neutrophils recruited to the wounded area, the cells in a defined area of the tail were determined by blinded manual counting. […]

zebrafish larvae = test: whole-body glucose measurement of zebrafish larvae; conditions: for whole-body glucose level: Example 2, non-wounded; for whole-body glucose level / whole-body glucose level upon wounding: 5 dpf; for whole-body glucose level upon wounding: Example 2, wounded at 2 dpf; for whole body glucose level: 0-5 dpf, 10 μM beclomethasone, 50 μM Rg1 or combination
Procedure: In each experiment, three biological replicates were used for each treatment group, and the colorimetric assay was performed using technical duplicates.
Tail fin wounding were performed at 2 days post-fertilization (dpf). At 5 dpf, the larvae (15 per sample) were placed in egg water for 1 h and collected in an Eppendorf tube, washed in egg water (3 times for 10 min). Subsequently, 100 μL of ice-cold glucose buffer was added to each sample, and the larvae were homogenized using a BulletBlender® for 3 min at 8,000 rpm. The homogenates were then centrifuged at 4° C. for 8 min at 11,000 rpm and the supernatant was stored at −20° C. Whole-body glucose concentrations were determined using a Glucose Colorimetric Assay kit (Cayman Chemical, Ann Arbor, MI, USA), according to the manufacturer's instructions. In each experiment, three biological replicates were used for each treatment group, and the colorimetric assay was performed using technical duplicates.

macrophages = test: zebrafish tail fin wounding assay, macrophage migration to wounded site; type: in vivo, zebrafish (Danio rerio); conditions: Example 2; PPT 50 μM; F1, Rh1, Rg1 100 μM; Bec positive control; 3 dpf
Procedure: as §1, §2, §3, §4, §5, §6

il1b = conditions: previously shown, ref [17]; cited from earlier work
IL8 = test: qPCR IL8 expression in TNF-α-treated HeLa cells; type: cell-based, human; conditions: for IL8 expression (TNF-α induced): 0.01 μM beclomethasone, 20 μM Rg1 or combination; for IL8 expression, long-term: 30 h
Procedure: (§7) HeLa (human cervical cancer) cells were cultured in Dulbecco's Modified Eagle's (DMEM) High Glucose (HG) medium without phenol red supplemented with 10% Fetal Calf Serum (FCS) and 10% Glutamax (Sigma-Aldrich). The cells were maintained at 37° C. and 5% CO2. At 24 h before adding the treatment, the medium was replaced by DMEM HG with 10% charcoal-inactivated serum and 10% Glutamax (Sigma-Aldrich). The cells were exposed to short- and long-term compound treatments. […] Subsequently, TNF-α (10 ng/ml) was added along with the compound treatments for 6 h (this last step was not added in the actinomycin-D and cycloheximide experiments).
(§8) To determine levels of gene expression in zebrafish larvae, 3 dpf larvae were used in both wounded and non-wounded conditions, and after short- and long-term treatments. Groups of 15 larvae were collected in TRIzol reagent (ThermoFisher) and total RNA was isolated using miRNeasy mini kit (Qiagen, Hilden, Germany). For experiments in HeLa cells, cells were seeded in 6 well plates and after treatment, the cells were removed from the wells using TRIzol reagent and mRNA was isolated using miRNeasy mini kit (Qiagen) according to the manufacturer's instructions. The RNA samples were DNAse-treated utilizing the DNA-free™ DNA Removal Kit (ThermoFisher Scientific). The cDNA synthesis was performed using the iScript cDNA synthesis kit (Bio-Rad Laboratories, Hercules, CA, USA) using 1 μg of RNA per sample. For qPCR, 10 μM of forward primer and 10 μM of reverse primer, 12.5 μl of IQ SYBR Green Supermix (Bio-Rad Laboratories), and 2 μl of cDNA were added to the qPCR reaction mixture. […] The qPCR reactions were performed on a MyiQ-single-color real-time PCR detection system (Bio-Rad Laboratories), with initial denaturation for 3 min, 95° C., and 40 cycles of 15 s at 95.5° C., 15 s at 60° C., and 30 s at 72° C. Cycle threshold values (Ct values, i.e. the cycle numbers at which a threshold value of the fluorescence intensity was reached) were determined for each sample. The gene expression level for each sample was normalized using the expression of ppial (peptidylprolyl isomerase Ab (cyclophilin A)) for zebrafish samples, and 18S rRNA for human cells. The fold change per sample (compared to the respective control group) was calculated using the […]Ct method.

FKBP5 = test: qPCR FKBP5 expression in HeLa cells (GR transactivation); type: cell-based, human; conditions: beclomethasone 1 μM, Rg1 50 μM or combination
Procedure: as §7, §8

[1] = beclomethasone 1 μM, Rg1 20 μM or combination

| SMILES | migration of neutrophils upon tail fin wounding (neutrophils) | reduction in neutrophil migration in presence of Gba2 inhibitor MZ31 (neutrophils) | whole-body glucose level (zebrafish larvae) | whole-body glucose level upon wounding (zebrafish larvae) | macrophage migration upon tail fin wounding (macrophages) | il1b expression after wounding (il1b) | migration of neutrophils towards the wounded site (neutrophils; Rg1 40 μM and lower) | IL8 expression (TNF-α induced) (IL8; 6 h) | IL8 expression, short-term (IL8; beclomethasone 1 μM, Rg1 20 μM or combination, 6 h) | IL8 expression, long-term (IL8; [1]) | whole body glucose level (zebrafish larvae) | FKBP5 expression, long-term (FKBP5) | FKBP5 expression, short-term (FKBP5) | migration of neutrophils towards the wounded site (neutrophils; beclomethasone 20 μM and 40 μM) | migration of neutrophils towards the wounded site (neutrophils; beclomethasone lower than 10 μM) | dose-response of whole-body glucose level (zebrafish larvae; beclomethasone 0.1, 1, 5, 10, 15 μM without or with 50 μM Rg1) |
| --- | --- | --- | --- | --- | --- | --- | --- | --- | --- | --- | --- | --- | --- | --- | --- | --- |
| CC(C)=CCC[C@](C)(O[C@@H]1O[C@H](CO)[C@@H](O)[C@H](O)[C@H]1O)[C@H]1CC[C@]2(C)[C@@H]1[C@H](O)C[C@@H]1[C@@]3(C)CC[C@H](O)C(C)(C)[C@@H]3[C@@H](O)C[C@]12C [F1] | inhibited the migration of neutrophils | did not affect the reduction in neutrophil migration | did not show any side effects | did not affect the glucose level | without affecting the macrophage migration | – | – | – | – | – | – | – | – | – | – | – |
| CC(C)=CCC[C@](C)(O)[C@H]1CC[C@]2(C)[C@@H]1[C@H](O)C[C@@H]1[C@@]3(C)CC[C@H](O)C(C)(C)[C@@H]3[C@@H](O)C[C@]12C [PPT, Protopanaxatriol] | inhibited the migration of neutrophils | did not affect the reduction in neutrophil migration | did not affect the glucose level | – | without affecting the macrophage migration | – | – | – | – | – | – | – | – | – | – | – |
| CC(C)=CCC[C@](C)(O[C@@H]1O[C@H](CO)[C@@H](O)[C@H](O)[C@H]1O)[C@H]1CC[C@]2(C)[C@@H]1[C@H](O)C[C@@H]1[C@@]3(C)CC[C@H](O)C(C)(C)[C@@H]3[C@@H](O[C@@H]3O[C@H](CO)[C@@H](O)[C@H](O)[C@H]3O)C[C@]12C [Rg1, (3β,6α, 12β)-3,12-Dihydroxydammar-24-ene-6,20-diyl bis-β-D-glucopyranoside] | inhibited the migration of neutrophils | this inhibitor abolished the effect of the polyglycosylated ginsenoside Rg1 | did not show any side effects | still not show any effect on the glucose or cortisol level or on tissue regeneration | without affecting the macrophage migration | transrepressed | did not alter the neutrophil migration | slightly suppressed | slightly suppressed | more strongly after long-term treatment | did not affect the whole-body glucose and cortisol concentrations | did not affect the expression of these genes | did not affect the expression of these genes | – | – | – |
| CC(C)=CCC[C@](C)(O)[C@H]1CC[C@]2(C)[C@@H]1[C@H](O)C[C@@H]1[C@@]3(C)CC[C@H](O)C(C)(C)[C@@H]3[C@@H](O[C@@H]3O[C@H](CO)[C@@H](O)[C@H](O)[C@H]3O)C[C@]12C [Rh1] | inhibited the migration of neutrophils | did not affect the reduction in neutrophil migration | did not show any side effects | still not show any effect on the glucose or cortisol level or on tissue regeneration | without affecting the macrophage migration | – | – | – | – | – | – | – | – | – | – | – |
| C[C@H]1C[C@H]2[C@@H]3CCC4=CC(=O)C=C[C@]4(C)[C@@]3(Cl)[C@@H](O)C[C@]2(C)[C@@]1(O)C(=O)CO [beclomethasone, reference compound] | inhibited the migration of neutrophils | – | increase in the glucose level | – | without affecting the macrophage migration | transrepressed | – | slightly suppressed | – | the suppressive effects of beclomethasone were significantly reduced after long-term treatment | elevated whole body glucose | increased over time | strongly increased the expression of these genes after short-term treatment | did significantly reduce the neutrophil migration | did not affect the migration of neutrophils towards the wounded site | dose-dependent effect |
